Test results from patent US12036194B1, “Methods of administering solriamfetol to lactating women” (Axsome Malta Ltd., priority 2022, dated 2024).
Values joined by “and” are separate entries in the source; they are usually repeats but may differ in a detail not shown here. Equal values may be shown once. Where a name gives a salt, the structure may show the parent alone.

Assays:
[1] = Phase 4 single-dose study: safety and tolerability (adverse events, vital signs, 12-lead ECG, C-SSRS); assay type: in vivo, human; details: for Subjects who discontinued due to AE / Subjects with Mild AE / Subjects with Moderate AE / Subjects with SAE / Subjects with an AE considered related to study drug / Subjects with an AE considered unrelated to study drug / Subjects with at least 1 AE: hydrochloride
Protocol: Pharmacokinetic analysis of breast milk obtained from both breasts (by pumping) was evaluated prior to dose administration and at intervals up to 72 hours postdose. Blood samples were also collected for plasma solriamfetol quantitation and PK analysis predose and at timepoints up to 72 hours postdose. Solriamfetol breast milk and plasma concentrations were measured using validated bioanalytical methods. Safety was assessed throughout the study by 12-lead ECG, vital sign measurements, the Columbia-Suicide Severity Rating Scale (C-SSRS), and the incidence of adverse events (AE).
Vital signs (blood pressure, pulse rate, temperature, and respiratory rate) were measured with the subject in a seated or supine position and resting for at least 5 minutes prior to taking the measurement. The dominant arm was used for blood pressure and pulse rate measurements. On Day 1, vital signs were collected at predose, and at approximately 2 (blood pressure and pulse) and 4 hours (blood pressure and pulse) postdose.
12-lead ECG was taken with the subject in a supine position and resting for at least 10 minutes prior to taking the measurement. On Day 1, ECGs were collected predose and at approximately 2 hours postdose.
Adverse events were monitored throughout the study by safety assessments, observations, and subject reporting, including the Safety FU telephone call 5-7 days (i.e., Days 9-11) after check-out from the study facility on Day 4, or ET.
The 12-lead ECGs were collected at Screening, Day −1 until Day 4. Single 12-lead ECG was obtained using an ECG machine that automatically calculated the heart rate and measured PR, QRS, QT, and corrected QT interval (QTc) intervals. Any abnormal safety assessments including ECG readings considered clinically significant in the medical and scientific judgment of the investigator were reported as an AE. The investigator had to review the ECG and document it in the source documents. Clinically significant abnormal ECG results reported during Screening were recorded as medical history and those reported after study drug were recorded as AEs.
Safety analyses were based on the Safety Population. The secondary endpoints for evaluating subject safety and tolerance were the incidence of reported AEs and the laboratory test results for all subjects.
Adverse events: Adverse events recorded in the electronic case report forms (eCRFs) were coded to SOC and PT using the Medical Dictionary for Regulatory Activities (MedDRA). Treatment-emergent adverse events (TEAEs) are defined as any event with onset date on or after the first dose of study drug or any ongoing event that worsened in severity after the date of the first dose of study drug or any event that was present at baseline but was subsequently considered drug-related by the investigator through the end of the study. The incidence of TEAEs were presented by severity, relationship to study drug, start and end date, seriousness, and outcome. The investigator assessed the severity and relatedness of each AE to study drug. Columbia-Suicide Severity Rating Scale (C-SSRS) data were summarized at scheduled visits and were listed. Other safety analyses were performed as appropriate.
12 Lead ECG: The number and percentage of subjects who had the following postbaseline clinically notable ECG interval abnormality was summarized: Ventricular rate >100 beats/min or ≤60 beats/min; PR interval ≥200 msec or ≤120 msec; QRS duration ≥100 msec or ≤80 msec; QT interval ≥440 msec or ≤350 msec; QTc Bazett and QTc Fredericia ≥470 msec or ≤330 msec; RR interval ≥1200 msec or ≤600 msec; and QTc Bazette and QTc Fredericia increase from study Baseline Value >30 msec. […]

[2] = rats; breast milk; cited from earlier work
[3] = Solriamfetol 150 mg single dose, N = 6
[4] = Solriamfetol 150 mg single dose, N = 6, listed as solriamfetol
[5] = any post-baseline visit/timepoint, 150 mg, N = 6

SMILES: NC(=O)OC[C@H](N)Cc1ccccc1 [Solriamfetol, (R)-2-amino-3-phenylpropyl carbamate (APC) hydrochloride]
- abnormal clinically significant ECG findings ([1]; 150 mg single dose, N = 6): No abnormal clinically significant ECG findings
- number of TEAEs of mild intensity (dizziness, headache, agitation; related to study drug) ([1]; 150 mg single dose, N = 6): 3 TEAEs
- number of TEAEs of moderate intensity (headache; unrelated to study drug) ([1]; 150 mg single dose, N = 6): 1 TEAE
- outcome of TEAEs ([1]; 150 mg single dose, N = 6): resolved
- subjects reporting suicidal ideation or event under Columbia-Classification Algorithm for Suicide Assessment ([1]; 150 mg single dose, N = 6): None
- subjects with abnormal, clinically significant laboratory findings ([1]; 150 mg single dose, N = 6): None
- total number of TEAEs reported ([1]; 150 mg single dose, N = 6): 4 TEAEs
- Subjects who discontinued due to AE considered related to study drug [1, 3]: 0 n (%)
- Subjects who discontinued due to AE considered unrelated to study drug [1, 3]: 0 n (%)
- Subjects with Fatal AE [1, 3]: 0 n (%)
- Subjects with Life-threatening AE [1, 3]: 0 n (%)
- Subjects with SAE considered related to study drug [1, 3]: 0 n (%)
- Subjects with SAE considered unrelated to study drug [1, 3]: 0 n (%)
- Subjects with Severe AE [1, 3]: 0 n (%)
- TEAE, PT Agitation [1, 3]: 1 (16.7) n (%)
- TEAE, PT Dizziness [1, 3]: 1 (16.7) n (%)
- TEAE, PT Headache [1, 3]: 2 (33.3) n (%)
- TEAE, SOC Nervous system disorders [1, 3]: 2 (33.3) n (%)
- TEAE, SOC Psychiatric disorders [1, 3]: 1 (16.7) n (%)
- Subjects who discontinued due to AE [1, 3]: 0 n (%)
- Subjects with Mild AE [1, 3]: 2 (33.3) n (%)
- Subjects with Moderate AE [1, 3]: 1 (16.7) n (%)
- Subjects with SAE [1, 3]: 0 n (%)
- Subjects with an AE considered related to study drug [1, 3]: 2 (33.3) n (%)
- Subjects with an AE considered unrelated to study drug [1, 3]: 1 (16.7) n (%)
- Subjects with at least 1 AE [1, 3]: 3 (50.0) n (%)
- Subjects who discontinued due to AE [1, 4]: None
- Subjects with Mild AE [1, 4]: 2 (33.3%) n (%)
- Subjects with Moderate AE [1, 4]: 1 (16.7%) n (%)
- Subjects with SAE [1, 4]: No SAEs
- Subjects with an AE considered related to study drug [1, 4]: 2 (33.3%) n (%)
- Subjects with an AE considered unrelated to study drug [1, 4]: 1 (16.7%) n (%)
- Subjects with at least 1 AE [1, 4]: 3 (50%) n (%) and 3 n (%)
- Clinically notable Body temperature: Change in body temperature > 1.8% from the subjects baseline temperature recordings [1, 5]: 1 (16.7) n (%)
- Clinically notable Diastolic blood pressure: Average diastolic blood pressure ≥ 95 mmHg or ≤ 60 mmHg [1, 5]: 2 (33.3) n (%)
- Clinically notable ECG mean heart rate: Ventricular rate ≥ 100 beats/min or ≤ 60 beats/min [1, 5]: 2 (33.3) n (%)
- Clinically notable PR interval, single beat: PR interval ≥ 200 msec or ≤ 120 msec [1, 5]: 2 (33.3) n (%)
- Clinically notable Pulse rate: Pulse change by > 20% from the study baseline value/recordings [1, 5]: 2 (33.3) n (%)
- Clinically notable QRS duration, single beat: QRS duration ≥ 100 msec or ≤ 80 msec [1, 5]: 4 (66.7) n (%)
- Clinically notable QT interval, single beat: QT interval ≥ 440 msec or ≤ 350 msec [1, 5]: 1 (16.7) n (%)
- Clinically notable Systolic blood pressure: Blood pressure change by > 20% from the study baseline value/recordings [1, 5]: 1 (16.7) n (%)
- changes in vital sign parameters from baseline ([1]; baseline to Day 1 2 hours and 4 hours, Day 2, Day 3, Day 4): no major changes
- changes in ECG parameters from baseline ([1]; baseline to Day 1 predose and 2 hours, Day 2, Day 3, Day 4): no major changes
- overall safety and tolerability ([1]; single oral dose 150 mg, 6 healthy postpartum women): safe and well tolerated
- solriamfetol milk concentrations versus plasma concentrations [2]: higher than
